# Legend:
# Cannabinoid receptor 2 = Cannabinoid receptor 2 (Homo sapiens, UniProt P34972); assay: Binding affinity to CB2 receptor
# Cannabinoid receptor 1 = Cannabinoid receptor 1 (Homo sapiens, UniProt P21554); assay: Binding affinity to CB1 receptor
# Chain of Cannabinoid receptor 1 (P21554 whole entry): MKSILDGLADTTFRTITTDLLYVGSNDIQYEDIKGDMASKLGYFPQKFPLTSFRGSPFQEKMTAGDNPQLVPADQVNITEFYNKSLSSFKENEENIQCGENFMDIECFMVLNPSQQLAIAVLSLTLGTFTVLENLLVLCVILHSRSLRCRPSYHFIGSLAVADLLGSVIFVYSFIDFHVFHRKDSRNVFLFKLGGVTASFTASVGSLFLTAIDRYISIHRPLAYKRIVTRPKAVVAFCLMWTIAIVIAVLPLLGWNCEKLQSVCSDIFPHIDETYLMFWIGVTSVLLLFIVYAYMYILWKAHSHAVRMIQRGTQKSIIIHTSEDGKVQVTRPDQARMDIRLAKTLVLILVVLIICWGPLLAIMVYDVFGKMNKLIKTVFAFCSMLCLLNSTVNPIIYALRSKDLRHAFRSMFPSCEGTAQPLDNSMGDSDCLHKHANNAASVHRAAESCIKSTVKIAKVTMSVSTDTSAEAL
# Chain of Cannabinoid receptor 2 (P34972 whole entry): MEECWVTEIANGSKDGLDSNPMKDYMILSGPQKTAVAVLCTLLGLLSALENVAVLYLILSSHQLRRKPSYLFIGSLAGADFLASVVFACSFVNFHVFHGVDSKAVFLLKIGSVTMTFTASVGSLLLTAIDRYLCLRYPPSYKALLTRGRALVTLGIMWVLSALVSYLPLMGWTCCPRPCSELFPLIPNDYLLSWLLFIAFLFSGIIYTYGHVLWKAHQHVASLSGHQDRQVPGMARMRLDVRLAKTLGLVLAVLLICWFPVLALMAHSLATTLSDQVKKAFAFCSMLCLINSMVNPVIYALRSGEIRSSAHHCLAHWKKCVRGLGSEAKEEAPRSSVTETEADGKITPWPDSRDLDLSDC
Compound,Ki (Cannabinoid receptor 2) [nM],Ki (Cannabinoid receptor 1) [nM]
CC1=CC[C@@H]2[C@@H](C1)c1c(O)cc(-c3cccc4ccccc34)cc1OC2(C)C,9.39,11.7
CCCCCCC1(c2cc(O)c3c(c2)OC(C)(C)[C@@H]2CC=C(C)C[C@@H]32)SCCS1,0.52,0.32
CC1=CC[C@@H]2[C@@H](C1)c1c(O)cc(Oc3ccccc3)cc1OC2(C)C,23.6,297
CC1=CC[C@@H]2[C@@H](C1)c1c(O)cc(C3(C#N)CCCCC3)cc1OC2(C)C,3.86,8.26
CC1=CC[C@@H]2[C@@H](C1)c1c(O)cc(C(C)(C)CCCCBr)cc1OC2(C)C,–,0.43
CC1=CC[C@@H]2[C@@H](C1)c1c(O)cc(C3(C#N)CCCC3)cc1OC2(C)C,25.2,27.9
CCCCC(C)(C)c1cc(O)c2c(c1)OC(C)(C)[C@@H]1CC=C(C)C[C@@H]21,–,3.9
CCCC(C)(C)c1cc(O)c2c(c1)OC(C)(C)[C@@H]1CC=C(C)C[C@@H]21,–,10.9
CC1=CC[C@@H]2[C@@H](C1)c1c(O)cc(-c3ccc(C)cc3)cc1OC2(C)C,71.8,95.5
CC1=CC[C@@H]2[C@@H](C1)c1c(O)cc(CCCCCN=[N+]=[N-])cc1OC2(C)C,–,19
CCCCCCC1(c2cc(O)c3c(c2)OC(C)(C)[C@@H]2CC=C(C)C[C@@H]32)Sc2ccccc2S1,257,56.9
CCCCCCC1(c2cc(O)c3c(c2)OC(C)(C)[C@@H]2CC=C(C)C[C@@H]32)CC1(Cl)Cl (stereo partly specified),0.29,1.27
CCCCCCC(=O)c1cc(O)c2c(c1)OC(C)(C)[C@@H]1CC=C(C)C[C@@H]21,83.7,21.7
C=C(C)C1CCC(C)=C[C@H]1c1c(O)cc(C2(CCCCCC)CC2(Br)Br)cc1O (stereo partly specified),63.3,189
CCCCCCC1(c2cc(O)c3c(c2)OC(C)(C)[C@@H]2CC=C(C)C[C@@H]32)OCCO1,0.22,0.52
C=C(C)C1CCC(C)=C[C@H]1c1c(O)cc(C2(CCCCCC)CC2)cc1O (stereo partly specified),99.2,58.7
CCCCCCC1(c2cc(O)c3c(c2)OC(C)(C)[C@@H]2CC=C(C)C[C@@H]32)CCCC1,1.92,0.45
CCc1ccc(-c2cc(O)c3c(c2)OC(C)(C)[C@@H]2CC=C(C)C[C@@H]32)cc1,51.7,119
CC1=CC[C@@H]2[C@@H](C1)c1c(O)cc(C(C)(C)C3CCCC3)cc1OC2(C)C,0.39,0.34
C=C(C)C1CCC(C)=C[C@H]1c1c(O)cc(-c2ccc(C)cc2)cc1O (stereo partly specified),374,638
CCCCCCC1(c2cc(O)c3c(c2)OC(C)(C)[C@@H]2CC=C(C)C[C@@H]32)SCCCS1,3.6,1.8

Compound,Ki (Cannabinoid receptor 2) [nM],Ki (Cannabinoid receptor 1) [nM]
CC1=CC[C@@H]2[C@@H](C1)c1c(O)cc(C(C)(C)CCCCC(=O)NN3CCCCC3)cc1OC2(C)C,3.2,4.5
CC1=CC[C@@H]2[C@@H](C1)c1c(O)cc(C3SCCS3)cc1OC2(C)C,103,168
CCCCCCCc1cc(O)c2c(c1)OC(C)(C)[C@@H]1CC=C(C)C[C@@H]21,–,22
CCCc1ccc(-c2cc(O)c3c(c2)OC(C)(C)[C@@H]2CC=C(C)C[C@@H]32)cc1,108,57.8
CCCCCCC1(c2cc(O)c3c(c2)OC(C)(C)[C@@H]2CC=C(C)C[C@@H]32)CC1(Br)Br (stereo partly specified),1.03,0.71
C=C(CCCCCC)c1cc(O)c2c(c1)OC(C)(C)[C@@H]1CC=C(C)C[C@@H]21,3.3,2.17
C=C(C)C1CCC(C)=C[C@H]1c1c(O)cc(C2(C#N)CCCC2)cc1O (stereo partly specified),105,255
C=C(C)C1CCC(C)=C[C@H]1c1c(O)cc(-c2cccc3ccccc23)cc1O (stereo partly specified),222,754
CCCCCCC1(c2cc(O)c3c(c2)OC(C)(C)[C@@H]2CC=C(C)C[C@@H]32)CC1,0.86,0.44
CCCCCCC1(c2cc(O)c3c(c2)OC(C)(C)[C@@H]2CC=C(C)C[C@@H]32)SC(C)C(C)S1 (stereo partly specified),19.7,32.3
CC1=CC[C@@H]2[C@@H](C1)c1c(O)cc(C(C)(C)C)cc1OC2(C)C,–,14
CC1=CC[C@@H]2[C@@H](C1)c1c(O)cc(C(C)(C)CCCCC#N)cc1OC2(C)C,1.1,1.75
C=C(C)C1CCC(C)=C[C@H]1c1c(O)cc(C2(CCCCCC)SCCS2)cc1O (stereo partly specified),50.4,136
CC1=CC[C@@H]2[C@@H](C1)c1c(O)cc(C(C)(C)C3CCCCCC3)cc1OC2(C)C,0.22,0.94
CC1=CC[C@@H]2[C@@H](C1)c1c(O)cc(CCCC(C)C)cc1OC2(C)C,–,141
CC1=CC[C@@H]2[C@@H](C1)c1c(O)cc(C(C)(C)CCCCCC#N)cc1OC2(C)C,2.9,0.2
CC1=CC[C@@H]2[C@@H](C1)c1c(O)cc(C34CC5CC(CC(C5)C3)C4)cc1OC2(C)C,52,6.8
CCCCCC(C)(C)c1cc(O)c2c(c1)OC(C)(C)[C@@H]1CC=C(C)C[C@@H]21,–,2.7
C=C(C)C1CCC(C)=C[C@H]1c1c(O)cc(C2(CCCCCC)CC2(Cl)Cl)cc1O (stereo partly specified),32.9,666
CC1=CC[C@@H]2[C@@H](C1)c1c(O)cc(C(C)(C)CCCCOc3ccc(C#N)cc3)cc1OC2(C)C,1.1,1.5
C=C(C)C1CCC(C)=C[C@H]1c1c(O)cc(C2(C#N)CCCCC2)cc1O (stereo partly specified),111,319

# Reference: ChEMBL document CHEMBL1140633, “The application of 3D-QSAR studies for novel cannabinoid ligands substituted at the C1' position of the alkyl side chain on the structural requirements for binding to cannabinoid receptors CB1 and CB2” (J Med Chem, 2007)
